Key:
mouse PPARγ [1] = molecular target: T1, mouse PPARγ (Mus musculus, UniProt P37238); test: PPARγ radioligand binding assay (GST-PPARγ-LBD fusion protein, scintillation proximity); settings: SPA
T1 sequence (P37238 204-505): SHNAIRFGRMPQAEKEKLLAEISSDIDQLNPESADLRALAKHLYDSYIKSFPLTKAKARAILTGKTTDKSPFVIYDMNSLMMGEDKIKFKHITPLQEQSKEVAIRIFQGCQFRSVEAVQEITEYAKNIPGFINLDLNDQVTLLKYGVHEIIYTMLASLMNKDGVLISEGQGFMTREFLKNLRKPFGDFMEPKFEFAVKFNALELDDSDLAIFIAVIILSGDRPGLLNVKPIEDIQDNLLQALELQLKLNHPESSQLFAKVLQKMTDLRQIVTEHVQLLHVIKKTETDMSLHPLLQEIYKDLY
Source text: (§1) Full-length cDNA clones for human PPARα and mouse PPARγ were obtained by RT-PCR from human adipose and mouse liver cRNA, respectively, cloned into plasmid vectors and verified by DNA sequencing. […] To accomplish this, the portions of the cloned sequences encoding the LBDs were amplified from the full-length clones by PCR and then subcloned into the plasmid vectors. Final clones were verified by DNA sequence analysis.
(§2) Induction, expression, and purification of GST-LBD fusion proteins were performed in E. coli strain BL21(pLysS) cells by standard methods (Ref: Current Protocols in Molecular Biology, Wiley Press, edited by Ausubel et al.).
(§3) Radioligand Binding Assay
(§4) PPARγ receptor binding was assayed in TKE50 (50 mM Tris-HCl, pH 8, 50 mM KCl, […], 0.1 mg/ml fatty acid-free […] and 10 mM DTT). For each 96 well reaction an 140 ng equivalent of GST-PPARγ-LBD fusion protein was bound to 10 ug SPA beads (PharmaciaAmersham) in a final volume of 50 ul by shaking. The resulting slurry was incubated for 1 h at RT and centrifuged for 2 min at 1300 g. The supernatant containing unbound protein was removed and the semidry pellet containing the recptor-coated beads was resolved in 50 ul of TKE. For radioligand binding e.g. 10000 dpm 2(S)-(2-benzoyl-phenylamino)-3-{4-[1, 1-ditritio-2-(5-methyl-2-phenyl-oxazol-4-yl)-ethoxy]-phenyl}-propionic acid in 50 ul were added, the reaction incubated at RT for 1h and scintillation proximity counting performed. All binding assays were performed in 96 well plates and the amount of bound ligand measured on a Packard TopCount using OptiPlates (Packard). Nonspecific binding was determined in the presence of 10^−4 M unlabelled compound. Dose response curves were done in triplicates within a range of concentration from 10^−10 M to 10^−4 M.

mouse PPARγ [2] = molecular target: T1, mouse PPARγ; test: Luciferase transcriptional reporter gene assay, pFA-PPARγ-LBD in BHK21 cells; format: cell-based; set-up: expressed in transfected cells; host or cells: BHK21 (ATCC CCL10); settings: Gal4-PPARγ-LBD
Source text: as §1
(§5) Luciferase Transcriptional Reporter Gene Assays
(§6) Baby hamster kidney cells (BHK21 ATCC CCL10) were grown in DMEM medium containing 10% FBS at 37° C. in a […] atmosphere. Cells were seeded in 6 well plates at a density of 10^5 Cells/well and then transiently batch-transfected with either the pFA-PPARγ-LBD or pFA-PPARα-LBD expression plasmids plus the pFR-luc reporter plasmid and an expression plasmid encoding the secretable form of alkaline phosphatase (SEAP) as a normalization control. […] Six hours following transfection, the cells were harvested by trypsinization and seeded in 96 well plates at a density of 10^4 cells/well. After 24 hours to allow attachment of cells, the medium was removed and replaced with 100 ul of phenol red-free medium containing the test substances or control ligands (final. 0.1% DMSO). Following incubation of the cells for 24 hours with substances, 50 ul of the supernatant was recovered and analyzed for SEAP activity (Roche Molecular Biochemicals). The remainder of the supernatant was discarded, 50 ul PBS was added per well followed by one volume of Luciferase Constant-Light Reagent (Roche Molecular Biochemicals) to lyse the cells and initiate the luciferase reaction. Luminescence for both SEAP and luciferase was measured in a Packard TopCount. Luciferase activity was normalized to the SEAP control and transcriptional activation in the presence of a test substance was expressed as fold-activation over cells incubated in the absence of the substance. EC50 values were calculated using the XLfit program (ID Business Solutions Ltd. UK).

human PPARα [3] = molecular target: T2, human PPARα (Homo sapiens, UniProt Q07869); test: Luciferase transcriptional reporter gene assay, pFA-PPARα-LBD in BHK21 cells; format: cell-based; settings: Gal4-PPARα-LBD
T2 sequence (Q07869 167-468 limits assumed): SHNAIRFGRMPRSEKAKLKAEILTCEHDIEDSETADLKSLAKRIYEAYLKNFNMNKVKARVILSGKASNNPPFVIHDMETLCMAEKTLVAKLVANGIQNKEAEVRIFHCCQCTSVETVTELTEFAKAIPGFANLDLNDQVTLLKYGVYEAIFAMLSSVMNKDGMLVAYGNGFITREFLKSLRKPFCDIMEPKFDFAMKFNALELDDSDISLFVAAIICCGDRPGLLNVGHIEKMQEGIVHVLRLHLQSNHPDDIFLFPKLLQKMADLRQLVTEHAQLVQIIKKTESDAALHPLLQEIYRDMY
Source text: as §1, §5, §6

human PPARα [4] = molecular target: T2, human PPARα; test: PPARα radioligand binding assay (GST-PPARα-LBD fusion protein); set-up: made in house; host or cells: E. coli BL21(pLysS)
Source text: as §1, §2, §3
PPARα receptor binding was assayed in TKE10 (10 mM Tris-HCl, pH 8, 50 mM KCl, 2 mM EDTA, […] fatty acid free BSA and 10 mM DTT). For each 96 well 2.4 ug equivalent of GST-PPARα-LBD fusion protein and radioligand, e.g. 40000 dpm 2(S)-(2-benzoyl-phenylamino)-3-{4-[1,1-ditritio-2-(5-methyl-2-phenyl-oxazol-4-yl)-ethoxy]-phenyl}-propionic acid, were incubated in 100 ul volume at RT for 2 hrs. Bound ligand was removed from unbound ligand by solid phase separation using MultiScreen plates (Millipore) filled with 80 ul of SG25 according to the manufacturer's recommendations.
as §4

SMILES	IC50 (mouse PPARγ [1]) [µM]	EC50 (mouse PPARγ [2]) [µM]	EC50 (human PPARα [3]) [µM]	IC50 (human PPARα [4]) [µM]
CCOC(Cc1ccc2c(c1)cc(C)n2Cc1csc(-c2ccccc2)n1)C(=O)O (racemic) [Example 44, Rac-2-Ethoxy-3-[2-methyl-1-(2-phenyl-thiazol-4-ylmethyl)-1H-indol-5-yl]-propionic Acid]	1.41	2.7	5.24	1.64
CCO[C@@H](Cc1ccc2c(ccn2Cc2nc(-c3ccccc3Cl)oc2C)c1)C(=O)O [Example 5, (S)-3-{1-[2-(2-Chloro-phenyl)-5-methyl-oxazol-4-ylmethyl]-1H-indol-5-yl}-2-ethoxy-propionic Acid]			1.52	0.24
CCO[C@@H](Cc1ccc2c(ccn2Cc2nc(-c3ccccc3OC)oc2C)c1)C(=O)O [Example 8, (S)-2-Ethoxy-3-{1-[2-(2-methoxy-phenyl)-5-methyl-oxazol-4-ylmethyl]-1H-indol-5-yl}-propionic Acid]	0.4	0.56	0.19	0.28

Second part, the compound after the results:

IC50 (mouse PPARγ [1]) [µM]	EC50 (mouse PPARγ [2]) [µM]	EC50 (human PPARα [3]) [µM]	IC50 (human PPARα [4]) [µM]	SMILES
0.11	0.02	0.47	0.06	CCOC(Cc1ccc2c(c1)c(C)cn2Cc1nc(-c2ccc(F)c(C)c2)oc1C)C(=O)O (racemic) [Example 39, Rac-2-Ethoxy-3-{1-[2-(4-fluoro-3-methyl-phenyl)-5-methyl-oxazol-4-ylmethyl]-3-methyl-1H-indol-5-yl}-propionic Acid]
0.18	0.13	0.08	0.03	CCO[C@@H](Cc1ccc2c(ccn2Cc2nc(-c3ccc(C(F)(F)F)cc3)oc2C)c1)C(=O)O [Example 18, (S)-2-Ethoxy-3-{1-[5-methyl-2-(4-trifluoromethyl-phenyl)-oxazol-4-ylmethyl]-1H-indol-5-yl}-propionic Acid]
		0.03	0.03	CCO[C@@H](Cc1ccc2c(ccn2Cc2nc(-c3cc(OC)cc(OC)c3)oc2C)c1)C(=O)O [Example 21, (S)-3-{1-[2-(3,5-Dimethoxy-phenyl)-5-methyl-oxazol-4-ylmethyl]-1H-indol-5-yl}-2-ethoxy-propionic Acid]
0.05	0.05	0.06	0.12	CCO[C@@H](Cc1ccc2c(ccn2Cc2nc(-c3ccc(F)c(C)c3)oc2C)c1)C(=O)O [Example 25, (S)-2-Ethoxy-3-{1-[2-(4-fluoro-3-methyl-phenyl)-5-methyl-oxazol-4-ylmethyl]-1H-indol-5-yl}-propionic Acid]

From patent publication US6890947B2, “Indolyl derivatives” (Hoffmann-La Roche Inc., priority 2002, dated 2005)
